Experiment [1] has as its system Anastrepha ludens. The experiment can be described thus: Effect on fecundity in 7 days old adult female of Anastrepha ludens at 30 mg/g treated with diet after 24 hr in presence of untreated adult male of Anastrepha ludens. Format: functional, organism-based.
The subject of experiment [2] is Anastrepha ludens. The experiment can be described thus: Reduction of fertility in 7 days old adult of Anastrepha ludens assessed as reduction of egg hatching at 0.5 mg/g treated with diet measured after 7 days oviposition. In kind it is functional. Set-up: scale not given: the % may be the effect or the level left.

This note sets out measurements from ChEMBL document CHEMBL3045535, “Evaluation of lufenuron as a chemosterilant against fruit flies of the genus Anastrepha (Diptera: Tephritidae)” (2010).

Active and inactive are the calls of the source. The calls are words filed in the database; no cut-off is given here.

For `O=C(NC(=O)c1c(F)cccc1F)Nc1cc(Cl)c(OC(F)(F)C(F)C(F)(F)F)cc1Cl` (racemic) [LUFENURON], the outcome in experiment [1] was inactive. In addition, in experiment [2], the Activity is 12%.
